ChEMBL document CHEMBL3525941, “Comparison of in vitro metabolism of ticlopidine by human cytochrome P450 2B6 and rabbit cytochrome P450 2B4” (Drug Metab Dispos, 2011)

What was measured:
[1] = Retention time of the compound by HPLC-MS analysis; format: physicochemical
Cytochrome P450 2B6 [2] = molecular target: T1, Cytochrome P450 2B6 (Homo sapiens, UniProt P20813); test: Activity of recombinant full-length CYP2B6 (unknown origin) expressed in baculovirus-infected insect cells assessed as enzyme-mediated compound formation treated with 10 uM ticlopidine for 60 mins by HPLC-MS analysis in presence of NADPH; format: ADME; conditions: 1 h
T1 sequence (P20813 whole entry): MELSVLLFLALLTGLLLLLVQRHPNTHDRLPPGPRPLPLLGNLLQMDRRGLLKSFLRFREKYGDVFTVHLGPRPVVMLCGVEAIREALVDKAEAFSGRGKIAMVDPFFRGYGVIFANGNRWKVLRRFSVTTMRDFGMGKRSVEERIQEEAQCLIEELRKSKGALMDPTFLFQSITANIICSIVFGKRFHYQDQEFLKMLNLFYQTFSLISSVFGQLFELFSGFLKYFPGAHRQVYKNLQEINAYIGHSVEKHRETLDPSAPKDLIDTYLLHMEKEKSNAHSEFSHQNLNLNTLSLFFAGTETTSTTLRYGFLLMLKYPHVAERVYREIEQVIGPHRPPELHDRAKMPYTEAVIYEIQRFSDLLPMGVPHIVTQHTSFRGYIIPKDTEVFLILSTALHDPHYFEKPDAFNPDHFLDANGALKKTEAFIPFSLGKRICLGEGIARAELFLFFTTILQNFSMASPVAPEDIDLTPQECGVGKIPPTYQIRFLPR

Cytochrome P450 2B4 [3] = molecular target: T2, Cytochrome P450 2B4 (Oryctolagus cuniculus, UniProt P00178); test: Activity of rabbit CYP2B4 assessed as enzyme-mediated compound formation treated with 10 uM ticlopidine for 60 mins by HPLC-MS analysis in presence of NADPH; format: ADME; conditions: 1 h
T2 sequence (P00178 whole entry): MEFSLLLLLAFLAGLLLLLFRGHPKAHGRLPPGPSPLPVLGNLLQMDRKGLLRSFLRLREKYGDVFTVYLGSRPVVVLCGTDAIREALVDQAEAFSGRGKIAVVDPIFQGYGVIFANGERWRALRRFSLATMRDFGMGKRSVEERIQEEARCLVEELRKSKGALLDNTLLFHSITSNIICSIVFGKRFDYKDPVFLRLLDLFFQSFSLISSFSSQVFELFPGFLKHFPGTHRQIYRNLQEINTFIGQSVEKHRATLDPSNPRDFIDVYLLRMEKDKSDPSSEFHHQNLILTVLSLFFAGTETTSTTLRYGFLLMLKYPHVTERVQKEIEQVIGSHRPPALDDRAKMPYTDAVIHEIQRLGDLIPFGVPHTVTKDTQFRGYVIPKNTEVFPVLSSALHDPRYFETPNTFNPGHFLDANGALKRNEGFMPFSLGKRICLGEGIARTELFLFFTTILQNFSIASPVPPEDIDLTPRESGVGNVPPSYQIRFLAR

Liver microsome = test: Drug level in human liver microsomes assessed as compound formation treated with 10 uM ticlopidine for 60 mins by HPLC-MS analysis in presence of NADPH; format: ADME; conditions: 1 h
Cytochrome P450 2B4 [4] = molecular target: T2, Cytochrome P450 2B4; test: Activity of rabbit CYP2B4 assessed as observed rate constant for enzyme-mediated compound formation treated with 1 uM ticlopidine by HPLC-MS analysis in presence of NADPH; format: ADME
Cytochrome P450 2B6 [5] = molecular target: T1, Cytochrome P450 2B6; test: Activity of human CYP2B6 assessed as enzyme-mediated compound formation treated with 10 uM ticlopidine for 60 mins by HPLC-MS analysis in presence of NADPH; format: ADME; conditions: 1 h
Cytochrome P450 2B6 [6] = molecular target: T1, Cytochrome P450 2B6; test: Activity of human CYP2B6 assessed as observed rate constant for enzyme-mediated compound formation treated with 1 uM ticlopidine by HPLC-MS analysis in presence of NADPH; format: ADME
CYP2B4 = molecular target: T3, CYP2B4 (Oryctolagus cuniculus, UniProt P00178); test: Inhibition of rabbit CYP2B4 assessed as inactivation rate constant at 100 uM for 2 mins by HPLC-MS analysis in presence of NADPH; format: ADME
T3 sequence (P00178 whole entry): T2 sequence (P00178 whole entry)

CYP2B6 = molecular target: T4, CYP2B6 (Homo sapiens, UniProt P20813); test: Inhibition of human CYP2B6 assessed as inactivation rate constant at 100 uM for 2 mins by HPLC-MS analysis in presence of NADPH; format: ADME
T4 sequence (P20813 whole entry): T1 sequence (P20813 whole entry)

Row | SMILES | Retention_time [1] | Compound recovery (Cytochrome P450 2B6 [2]) | Compound recovery (Cytochrome P450 2B4 [3]) | Compound recovery (Liver microsome) | kobs (Cytochrome P450 2B4 [4]) | Compound recovery (Cytochrome P450 2B6 [5]) | kobs (Cytochrome P450 2B6 [6]) | kinact at 2 min, 100 µM (CYP2B4) | kinact at 2 min, 100 µM (CYP2B6)
1 | OC1CN(Cc2ccccc2Cl)Cc2ccsc21 (stereo not given) | 4.56 min | metabolite_detected | metabolite_detected | metabolite_detected | 0.49 min⁻¹ | metabolite_detected | 0.48 min⁻¹ | – | –
2 | O=C1C=C2CN(Cc3ccccc3Cl)CCC2S1 (stereo not given) | 4.9 min | metabolite_detected | metabolite_detected | metabolite_detected | 0.48 min⁻¹ | metabolite_detected | 0.5 min⁻¹ | – | –
3 | Clc1ccccc1C[N+]1=Cc2ccsc2CC1 | – | metabolite_detected | metabolite_detected | metabolite_detected | – | metabolite_detected | – | – | –
4 | Clc1ccccc1C[n+]1ccc2sccc2c1 | – | metabolite_detected | metabolite_detected | metabolite_detected | 0.56 min⁻¹ | metabolite_detected | – | – | –
5 | [O-][N+]1(Cc2ccccc2Cl)CCc2sccc2C1 (stereo not given) | 8 min | metabolite_detected | metabolite_detected | metabolite_detected | 0.66 min⁻¹ | metabolite_detected | 0.61 min⁻¹ | – | –
6 | CCOc1ccc2c(C(F)(F)F)cc(=O)oc2c1 | – | – | – | – | – | – | – | 0.000333 s⁻¹ | 0.00167 s⁻¹
7 | CC(NC(C)(C)C)C(=O)c1cccc(Cl)c1 (stereo not given) [BUPROPION] | 9.7 min | – | – | – | – | – | – | 0.00133 s⁻¹ | 0.00533 s⁻¹
